Data set [1] deals with Human corneal endothelial cells. The data set is described as follows: Adhesion of thawed cells cultured in medium with addition of DMSO (phase contrast microscopy), Example 3. Format: cell-based. The procedure:
(§1) • 1. Collect cells in the same manner as in Example 2 (Steps 1 to 10) and preserve the cells in cryotubes using Cryostor CS2. • 2. Freeze in a programmable freezer from 4° C. to −80° C. at −0.5° C./min. 3. Transfer to a Bicell processing housing previously cooled at −80° C. when a temperature was decreased to −80° C. and cryopreserve the Bicell in a freezer at −80° C. for 3 days. • 4. After 3 days of cryopreservation, thaw the cryotubes in which the cells were preserved in a water bath at 37° C. for 1 to 2 minutes. • 5. Collect the cells in a medium warmed to 37° C. in advance, and measure the number of cells collected and cell viability by trypan blue staining. • 6. Dispense the collected cells into four 15 mL STEMFULLS and centrifuge at 300 G for 5 minutes. • 7. After centrifugation, remove a supernatant, adjust a cell density to 1000 cells/mm^2 using media containing 10%, 5%, 2%, and 0% DMSO, and reseed in 12-well plates. • 8. Photograph the cells under a phase contrast microscope at 1 h, 3 h, 6 h, and 24 h after seeding. • 9. After taking photographs of the cells at each time point, collect all cells in the container, including floating cells, and determine cell viability by trypan blue staining.

Data set [2] has the same test system. The data set is described as follows: Viability of cells reseeded in medium with DMSO and collected (trypan blue), Example 3. Format: cell-based. Particulars: medium containing 10% DMSO. The procedure:
as §1

Turning to `C[S+](C)[O-]` [DMSO, dimethyl sulfoxide], the cell adhesion entry in data set [1] (5% DMSO, after 3 and 6 hours) was “less than half of the cells were adherent”; in data set [1] (5% DMSO, after 1 hour), “almost no adherent cells”; in data set [1] (5% DMSO, after 24 hours) it was “almost no adherent cells”; in data set [1] (10% DMSO, until 24 hours after seeding), “no cells were adherent”. Also, the “adhesion rate compared with medium without DMSO” value in data set [1] (medium containing 2% DMSO) is “not different”. For the same compound, the “number of cells compared with medium without DMSO” value in data set [1] (medium supplemented with 5% DMSO) and in data set [1] (medium supplemented with 10% DMSO) was “significantly lower” throughout. Also, the figures for the “viability of cells after reseeded and collected” value in data set [2] (at 1 hour) and in data set [2] (subsequent to 1 hour) were “no decrease in viability” and “decrease in viability”, respectively.

The record behind these values is US20250000083A1, “CRYOPRESERVATION PREPARATION FOR CORNEAL ENDOTHELIAL CELLS AND METHOD FOR PRODUCING SAID CRYOPRESERVATION PREPARATION” (THE DOSHISHA, priority 2021, published 2025).
